How the values were obtained:
[1] = background statement; cited from earlier work
hCB2 [2] = biological target: T1, hCB2 (Homo sapiens, UniProt P34972); assay: cAMP assay, hCB2; format: cell-based; conditions: for Emax: cAMP assay
T1 construct: expressed in transfected cells; host or cells: HEK293
Description: (§1) Functional characterization of some of the disclosed compounds was performed by using the cyclic adenosine monophosphate (cAMP) assay. The functional potency of the compound in the cAMP assay is represented by the EC50 value. The lower the EC50 value, the higher the functional potency. A detailed description of the cyclic adenosine monophosphate (cAMP) assay is given in Nikas et al. J. Med. Chem. (2010) 6996, the content of which is incorporated herein by reference. Table 10 lists the EC50 values of certain compounds of Formula (Je) in the cAMP assay.

rCB1 [3] = biological target: T2, rCB1 (Rattus norvegicus, UniProt P20272); assay: cAMP assay, rCB1; format: cell-based; conditions: for Emax: cAMP assay
T2 sequence (P20272 whole entry): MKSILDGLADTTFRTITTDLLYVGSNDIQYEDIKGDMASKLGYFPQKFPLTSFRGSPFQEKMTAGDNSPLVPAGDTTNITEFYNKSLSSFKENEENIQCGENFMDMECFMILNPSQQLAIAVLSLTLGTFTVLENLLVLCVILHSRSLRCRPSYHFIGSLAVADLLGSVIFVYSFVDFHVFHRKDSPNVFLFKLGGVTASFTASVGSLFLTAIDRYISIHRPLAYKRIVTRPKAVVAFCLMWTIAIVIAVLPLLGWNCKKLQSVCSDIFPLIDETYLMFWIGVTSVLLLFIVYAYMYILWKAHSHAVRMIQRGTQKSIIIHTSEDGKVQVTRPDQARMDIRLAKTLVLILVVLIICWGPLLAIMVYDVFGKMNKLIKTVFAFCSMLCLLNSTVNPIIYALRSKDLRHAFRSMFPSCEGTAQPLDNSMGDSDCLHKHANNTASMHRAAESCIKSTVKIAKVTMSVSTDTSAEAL
Description: as §1

rCB1 [4] = biological target: T2, rCB1; assay: rCB1 competition-equilibrium binding with [3H]CP-55,940, rat brain membranes; design: Frozen rat brains (CB1 source) are obtained from Pel-Freeze Biologicals; tissue Pel-Freeze Biologicals (Rogers, AK); host or cells: rat brain membranes
Description: Frozen rat brains (CB1 source) are obtained from Pel-Freeze Biologicals (Rogers, AK) and stored at −80° C. until use. Membranes are prepared according to the method described by Dodd et al. and used in our laboratory as reported.
(§2) All the cannabinoids discussed in this invention are tested for their ability to bind to CB 1 and CB2 receptors using membranes from rat brain or HEK293 cells expressing either mCB2 or hCB2, respectively via competition-equilibrium binding using [^3H]CP-55,940. Results are analyzed using nonlinear regression to determine ligand IC50 (Prism by GraphPad Software, Inc.), and Ki values are calculated from the IC50. IC50 and Ki values are determined from at least three independent experiments.
(§3) Some disclosed compounds were tested for CB1 and CB2 receptor binding affinity, which can be represented by a Ki value. The Ki value is the affinity constant and describes the affinity of the compound for the receptor. […] A detailed description of the methods used to test binding affinity of compounds is given in US 2007/0135388 and in Papahatjis, et al., J. Med. Chem. (2007) 4048, the content of each of which is hereby incorporated by reference.

hCB2 [5] = biological target: T1, hCB2; assay: hCB2 competition-equilibrium binding with [3H]CP-55,940, HEK293 membranes
Description: (§4) HEK293 cells expressing hCB1 or hCB2 or mCB2 receptor are used for membrane preparations according to Abadji et al. The resulting pellet is resuspended in 10 mM Tris-chloride, pH 7.4, with 5 mM MgCl2 and 2 mM EDTA (TME), rapidly frozen in liquid nitrogen and stored at −80° C. for no longer than two months. Protein content is assayed by using the Bio-Rad protein assay according to the manufacturer's protocol.
as §2, §3

mCB2 = biological target: T3, mCB2 (Mus musculus, UniProt P47936); assay: mCB2 competition-equilibrium binding with [3H]CP-55,940, HEK293 membranes
T3 construct: expressed in transfected cells; host or cells: HEK293
T3 sequence (P47936 whole entry): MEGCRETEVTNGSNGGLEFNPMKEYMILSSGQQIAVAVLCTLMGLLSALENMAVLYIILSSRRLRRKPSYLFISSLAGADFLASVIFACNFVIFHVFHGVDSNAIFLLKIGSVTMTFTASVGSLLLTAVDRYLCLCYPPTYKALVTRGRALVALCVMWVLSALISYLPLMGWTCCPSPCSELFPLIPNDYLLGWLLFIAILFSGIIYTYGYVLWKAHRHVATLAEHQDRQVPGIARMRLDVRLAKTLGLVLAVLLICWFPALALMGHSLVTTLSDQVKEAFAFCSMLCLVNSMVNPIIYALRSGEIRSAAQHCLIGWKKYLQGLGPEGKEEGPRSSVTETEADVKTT
Description: as §4, §2, §3

rats = assay: Hypothermia assay (FIG. 3A); format: in vivo, rat; conditions: change in body temperature vs time after injection, compared to AM10843
mice = assay: Analgesia assay, tail flick / tail immersion (FIG. 3B); format: in vivo, mouse; conditions: iso-active doses, compared with nabilone (AM10806) and AM10843
Description: Some of the disclosed compounds were tested in vivo using two well defined rodent assays for cannabinergic activity, the analgesia and the hypothermia assays. The analgesia assay (tail immersion test) determines the ability of a test compound to activate cannabinergic signaling, through modulation of cannabinoid receptors, and thereby reduce nociceptive pain. The hypothermia test determines the ability of a test compound to act as a central CB1 agonist and decrease the body temperature. […] The details of both assays are described below.
Analgesia Assay. C57BL6/J mice (Jackson Laboratories, Bar Harbor Maine) were single housed at least 1 h before start of experiment. Food and water were removed immediately before the first injection.
Route of administration=i.p. Volume=1 mL/100 g body weight.
Tail withdrawal test: 52° C. water bath (use bags). Bag was made of stapled surgery sheets to form a small pocket the size of a mouse. […] The tip of the mouse's tail was dipped into the warm water, with 1 cm submerged.

T1 sequence (P34972 whole entry): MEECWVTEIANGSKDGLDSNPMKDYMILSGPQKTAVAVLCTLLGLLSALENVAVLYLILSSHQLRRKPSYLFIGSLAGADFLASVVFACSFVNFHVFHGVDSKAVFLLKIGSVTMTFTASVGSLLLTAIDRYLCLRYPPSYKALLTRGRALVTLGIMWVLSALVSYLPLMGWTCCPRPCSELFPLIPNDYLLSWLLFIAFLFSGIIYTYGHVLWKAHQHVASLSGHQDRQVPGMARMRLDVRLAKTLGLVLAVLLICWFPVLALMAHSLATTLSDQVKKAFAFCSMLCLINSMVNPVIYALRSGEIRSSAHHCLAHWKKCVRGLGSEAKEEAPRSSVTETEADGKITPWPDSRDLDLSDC

SMILES | slow and erratic absorption [1] [h] | EC50 (hCB2 [2]) [nM] | Emax (hCB2 [2]) [%] | EC50 (rCB1 [3]) [nM] | Emax (rCB1 [3]) [%] | Ki (rCB1 [4]) [nM] | Ki (hCB2 [5]) [nM] | Ki (mCB2) [nM] | duration of hypothermic effect (rats) | duration of analgesic effect (tail flick) (mice)
CCCCCc1cc(O)c2c(c1)OC(C)(C)[C@@H]1CCC(C)=C[C@@H]21 [Dronabinol] | 2 to 6 | – | – | – | – | – | – | – | – | –
CCCCOC(=O)C(C)(C)c1cc(O)c2c(c1)OC(C)(C)C1CCC(=O)CC21 (centres unmarked) [AM 10843] | – | 1.1 ± 2.3 | 80 | 1 ± 0.3 | 83 | – | – | – | – | –
CCCCCOC(=O)C(C)(C)c1cc(O)c2c(c1)OC(C)(C)[C@@H]1CCC(=O)C[C@@H]21 [Compound 34c, Pentyl 2-((6aR,10aR)-1-hydroxy-6,6-dimethyl-9-oxo-6a,7,8,9,10,10a-hexahydro-6H-benzo[c]chromen-3-yl)-2-methylpropanoate] | – | 8.4 ± 1.8 | 46 | 8.9 ± 2.3 | 94 | 0.4 ± 0.01 | 11.5 ± 1.6 | 6.1 ± 1.1 | – | –
CCCCSC(=O)C(C)(C)c1cc(O)c2c(c1)OC(C)(C)[C@@H]1CCC(=O)C[C@@H]21 [Compound 34h, S-Butyl 2-((6aR,10aR)-1-hydroxy-6,6-dimethyl-9-oxo-6a,7,8,9,10,10a-hexahydro-6H-benzo[c]chromen-3-yl)-2-methylpropanethioate] | – | 83.4 ± 4.7 | 72 | 0.2 ± 0.04 | 89 | 0.7 ± 0.03 | 16 ± 2.4 | 5 ± 1.4 | – | –
CC(C)(C(=O)OCCCC#N)c1cc(O)c2c(c1)OC(C)(C)[C@@H]1CCC(=O)C[C@@H]21 [8 AM10811, 3-Cyanopropyl-2-((6aR,10aR)-1-hydroxy-6,6-dimethyl-9-oxo-6a,7,8,9,10,10a-hexahydro-6H-benzo[c]chromen-3-yl)-2-methylpropanoate] | – | 0.1 ± 0.03 | 77 | 0.4 ± 0.06 | 87 | 0.7 ± 0.03 | 6.2 ± 2.7 | 1.1 ± 0.4 | shorter acting | –
CC(C)(C(=O)OCCCN=[N+]=[N-])c1cc(O)c2c(c1)OC(C)(C)[C@@H]1CCC(=O)C[C@@H]21 [Compound 9, 3-Azidopropyl-2-((6aR,10aR)-1-hydroxy-6,6-dimethyl-9-oxo-6a,7,8,9,10,10a-hexahydro-6H-benzo[c]chromen-3-yl)-2-methylpropanoate] | – | 2.1 | 87 | 0.2 | 52 | 0.13 | 3.1 | 4 | – | –
CCCOC(=O)CC(C)(C)c1cc(O)c2c(c1)OC(C)(C)[C@@H]1CCC(=O)C[C@@H]21 [18 AM10819, Propyl-3-((6aR,10aR)-1-hydroxy-6,6-dimethyl-9-oxo-6a,7,8,9,10,10a-hexahydro-6H-benzo[c]chromen-3-yl)-3-methylbutanoate] | – | 0.2 ± 0.09 | 82 | 15.9 ± 3.6 | 90 | 11 ± 1.4 | 90 ± 11.3 | 26 ± 3.6 | – | shorter acting
CCC[C@@H](C)OC(=O)C(C)(C)c1cc(O)c2c(c1)OC(C)(C)[C@@H]1CCC(=O)C[C@@H]21 [Compound 34f, (R)-Pentan-2-yl 2-((6aR,10aR)-1-hydroxy-6,6-dimethyl-9-oxo-6a,7,8,9,10,10a-hexahydro-6H-benzo[c]chromen-3-yl)-2-methylpropanoate] | – | – | – | 94.5 | 71 | 4 ± 0.7 | 7 ± 2.1 | 36.4 ± 12.4 | – | –
